ChEMBL document CHEMBL6182886, “The Liebeskind-Srogl cross-coupling reaction towards the synthesis of biologically active compounds” (Eur J Med Chem, 2025)
In brackets after ≈: the same amount, converted by molar mass.

Tests used:
Cannabinoid receptor 2 = Cannabinoid receptor 2 (Mus musculus, UniProt P47936); assay: Binding affinity to mouse CB2 receptor extracted from HEK293 cell membrane assessed as inhibition constant; assay type: cell membranes
Cannabinoid receptor 1 = Cannabinoid receptor 1 (Rattus norvegicus, UniProt P20272); assay: Binding affinity to rat brain CB1 receptor assessed as inhibition constant; assay type: tissue-based
Cannabinoid receptor 1, sequence (P20272 whole entry): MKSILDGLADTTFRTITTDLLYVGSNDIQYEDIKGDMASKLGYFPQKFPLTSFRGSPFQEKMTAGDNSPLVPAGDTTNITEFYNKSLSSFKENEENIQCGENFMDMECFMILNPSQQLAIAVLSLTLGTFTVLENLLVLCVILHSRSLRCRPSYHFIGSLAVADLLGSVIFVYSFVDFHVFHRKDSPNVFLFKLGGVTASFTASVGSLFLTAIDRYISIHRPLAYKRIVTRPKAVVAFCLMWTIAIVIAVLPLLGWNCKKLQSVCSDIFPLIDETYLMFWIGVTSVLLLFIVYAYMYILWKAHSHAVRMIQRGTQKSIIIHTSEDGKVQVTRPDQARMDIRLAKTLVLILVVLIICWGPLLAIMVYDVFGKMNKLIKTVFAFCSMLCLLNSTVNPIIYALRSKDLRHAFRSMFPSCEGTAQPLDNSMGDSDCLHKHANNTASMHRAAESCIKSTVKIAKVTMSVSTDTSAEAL

[1] = Cytotoxicity against human HOG.R5 cells; assay type: functional, cell-based
[2] = system: Human immunodeficiency virus 1; assay: Antiviral activity against HIV-1 infected in human HOG.R5 cells assessed as reduction in viral growth; assay type: functional, organism-based; conditions: Human immunodeficiency virus 1, HOG.R5
L1210 = assay: Cytotoxicity against mouse L1210 cells; assay type: functional, cell-based
KB = assay: Cytotoxicity against human KB cells; assay type: functional, cell-based
[3] = Anticancer activity against human HEP cells assessed as reduction in cell viability measured for 48 hrs by MTT assay; assay type: toxicity, cell-based
P815 = assay: Anticancer activity against mouse P815 cells assessed as reduction in cell viability measured for 48 hrs by MTT assay; assay type: functional, cell-based; conditions: P815, 48 h

Cannabinoid receptor 2, sequence (P47936 whole entry): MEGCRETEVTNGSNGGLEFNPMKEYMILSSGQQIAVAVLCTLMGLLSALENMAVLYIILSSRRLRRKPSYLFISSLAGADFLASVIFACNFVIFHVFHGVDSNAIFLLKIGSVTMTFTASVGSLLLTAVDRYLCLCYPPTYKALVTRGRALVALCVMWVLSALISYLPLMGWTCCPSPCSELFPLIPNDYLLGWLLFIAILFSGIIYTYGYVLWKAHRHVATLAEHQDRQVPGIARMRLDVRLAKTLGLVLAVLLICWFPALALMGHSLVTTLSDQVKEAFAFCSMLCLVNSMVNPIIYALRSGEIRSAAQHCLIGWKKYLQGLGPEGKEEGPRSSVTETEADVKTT

COCOc1cc(C2=NCCC2)cc2c1[C@@H]1C[C@H](OCOC)CC[C@H]1C(C)(C)O2
Ki (Cannabinoid receptor 2): 12.3 nM
Ki (Cannabinoid receptor 1): 16.3 nM

CCCCCCC1(c2cc(O)c3c(c2)OC(C)(C)[C@@H]2CC[C@@H](O)C[C@@H]32)CN(C)C1
Ki (Cannabinoid receptor 2): 21.3 nM
Ki (Cannabinoid receptor 1): 19.2 nM

CC(C)=CCC/C(C)=C/[C@H]1C(=O)C(C)=C[C@@H]1O
IC50 [1]: 13.2 µg/mL (≈ 56.3 µM)
IC50 [2]: 5 µg/mL (≈ 21.3 µM)

C=C1/C=C(\C)[C@@H](C)[C@@H](O)CC(=O)[C@@H](C)CC(=O)C[C@H]2CC[C@@H](O2)[C@@H](/C=C/C=C(\C)[C@@H](O)C(=C)CCCC)OC(=O)C[C@@H]2O[C@H](C[C@H]2C)[C@H](O)[C@@H]1O
IC50 (L1210): 0.0058 µg/mL (≈ 0.00811 µM)
IC50 (KB): 0.0046 µg/mL (≈ 0.00643 µM)

CCCCCCCCCCCCCC[C@@H]1CCCN1C
IC50 [3]: 5 µg/mL (≈ 17.8 µM)
IC50 (P815): 10 µg/mL (≈ 35.5 µM)

C=C1/C=C(\C)[C@@H](C)[C@@H](O)CC(=O)[C@@H](C)CC(=O)C[C@H]2CC[C@@H](O2)[C@@H](/C=C/C=C(C)C)OC(=O)C[C@@H]2O[C@H](C[C@H]2C)[C@H](O)[C@@H]1O
IC50 (L1210): 1.5 µg/mL (≈ 2.43 µM)
IC50 (KB): 3.2 µg/mL (≈ 5.19 µM)

CC(C)=CCC/C(C)=C\[C@H]1C(=O)C(C)=C[C@@H]1O
IC50 [1]: 5.7 µg/mL (≈ 24.3 µM)
IC50 [2]: 2 µg/mL (≈ 8.53 µM)
